Assay results reported in patent publication US20250313576A1, “COMPOUND FOR PHOTOO[…] AND MEDICINAL COMPOSITION CONTAINING SAME” (The University of Tokyo, priority 2021, published 2025).

Columns and labels:
[1] = molecular target: T1, aggregated tau overexpressed in HEK cells (Homo sapiens, UniProt P10636); experiment: Intracellular photooxygenation reaction evaluated by Western blotting; format: cell-based; settings: for crosslinked product (more than 250 kDa) of the photooxygenation reaction: 595 nm light 15 minutes
T1 construct: expressed in transfected cells; host or cells: HEK cells (line called Fs17)
T1 sequence (P10636 2-412 isoform P10636-7): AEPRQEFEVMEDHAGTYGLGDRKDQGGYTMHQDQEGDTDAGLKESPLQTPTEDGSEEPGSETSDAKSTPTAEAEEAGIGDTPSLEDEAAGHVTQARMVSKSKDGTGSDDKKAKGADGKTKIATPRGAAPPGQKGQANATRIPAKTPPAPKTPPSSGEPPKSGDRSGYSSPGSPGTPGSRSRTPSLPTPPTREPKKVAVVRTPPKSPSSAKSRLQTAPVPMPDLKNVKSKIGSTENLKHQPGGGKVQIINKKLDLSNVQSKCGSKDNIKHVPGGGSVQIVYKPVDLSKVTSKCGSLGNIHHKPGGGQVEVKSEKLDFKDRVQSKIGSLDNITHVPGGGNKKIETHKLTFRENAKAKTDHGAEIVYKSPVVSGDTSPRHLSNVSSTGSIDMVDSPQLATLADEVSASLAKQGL
Protocol: An intracellular oxygenation reaction by the compounds PzT, OMe, Q, and J of the present invention was performed using HEK cells in which aggregated tau was overexpressed. Specifically, 10 uM of the compound of the present invention was added to a cell medium, and then irradiated with light at 595 nm for 15 minutes. After the reaction, viable cells were collected and lysed, and then the intracellular photooxygenation reaction was evaluated by measurement with Western blotting (FIG. 2). In a case where the compound of the present invention was not added, tau was detected between 75 kDa and 100 kDa by the 5A6 antibody that is a tau specific antibody, and a theoretical molecular weight of the overexpressed tau was about 70 kDa, and therefore, the tau was identified as a monomer.
Similarly, the compounds of the present invention C2OH, O, and O2 were also subjected to an intracellular oxygenation reaction. The cells overexpressing aggregated tau were incubated with a medium containing 1 μM of the compound of the present invention for 10 minutes. Thereafter, light of 595 nm was applied for 15 minutes. Reaction progress was identified and quantified by Western blotting measurements (FIG. 3). […] As a result, it was confirmed that a crosslinked product, which is one of products of a photooxygenation reaction, was detected in a region of more than 250 kDa on the right side of the lane to which the compound was added, whereas no crosslinked body was provided under non-light irradiation conditions, that is, on the left side of each lane in all the compounds, and the reaction proceeded in a light-dependent manner.

[2] = UV-vis spectrum, verification of absorption wavelength; format: physicochemical
From the text: It can be said that the longer the wavelength of light used for a living body, the lower the cytotoxicity and the better the tissue permeability.

[3] = molecular target: T2, overexpressed tau (Homo sapiens, UniProt P10636); experiment: LC-MS/MS analysis of methionine oxidation of overexpressed tau after intracellular reaction; format: cell-based; settings: monomeric tau, trypsin digestion, FIG. 6
T2 construct: expressed in transfected cells; host or cells: HEK cells (line called Fs17)
T2 sequence (P10636 1-412 isoform P10636-7): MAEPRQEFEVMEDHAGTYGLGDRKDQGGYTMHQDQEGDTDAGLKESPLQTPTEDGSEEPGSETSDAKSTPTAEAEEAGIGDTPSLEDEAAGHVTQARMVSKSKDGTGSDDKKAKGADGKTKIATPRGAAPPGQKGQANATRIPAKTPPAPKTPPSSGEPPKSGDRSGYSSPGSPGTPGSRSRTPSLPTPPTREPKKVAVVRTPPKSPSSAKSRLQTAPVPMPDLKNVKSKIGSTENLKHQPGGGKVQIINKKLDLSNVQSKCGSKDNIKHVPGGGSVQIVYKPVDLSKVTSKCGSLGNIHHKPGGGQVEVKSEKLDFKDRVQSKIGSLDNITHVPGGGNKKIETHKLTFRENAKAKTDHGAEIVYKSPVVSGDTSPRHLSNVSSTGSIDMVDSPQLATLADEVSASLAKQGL
Protocol: LC-MS/MS analysis was performed on the reaction product in order to confirm the production of side chain oxygenates that were difficult to specifically detect as a result of overlapping with unreacted substances in Western blotting. Since side chain oxygenates are mainly produced by oxidation of methionine side chains to sulfoxide, it was focused on 4 methionines contained in overexpressed tau having a total length of 412 amino acids. The intracellular protein after the reaction was separated according to the molecular weight by SDS-page, monomeric tau was cut out by trypsin enzyme digestion, and LC-MS/MS measurement was performed. A ratio of the detection intensity of the methionine oxidant was calculated from the sum of the detection intensities of the methionine reductant and the oxidant obtained from MS1 in the LC-MS/MS spectrum (FIG. 6).

[4] = 10 uM compound in cell medium, 5A6 antibody, FIG. 2

Compound: OCCN1CCCc2cc(/C=C/C=C/c3nc4ncc(Br)nc4s3)ccc21 [Compound C2OH, 2-(6-((1E,3E)-4-(6-bromothiazolo[4,5-b]pyrazin-2-yl)butadien-1,3-dien-1-yl)-3,4-dihydroquinolin-1(2H)-yl)ethane-1-ol]
- photooxygenation activity relative to the compound Q ([1]; 1 μM compound, 595 nm 15 minutes, quantified by Western blotting): twice or more
- crosslinked product (more than 250 kDa) of the photooxygenation reaction ([1]; 1 μM compound, 10 minutes incubation, light-dependent, FIG. 3): detected

Compound: Brc1cnc2nc(/C=C/C=C/c3cc4c5c(c3)CCCN5CCC4)sc2n1 [Compound J, 6-Bromo-2-((1E,3E)-4-(2,3,6,7-tetrahydro-1H,5H-pyrido[3,2,1-ij]quinolin-9-yl)butadien-1,3-dien-1-yl)thiazolo[4,5-b]pyrazine]
- λmax (nm), maximum absorption wavelength [2]: 508 nm
- crosslinked product (more than 250 kDa) of the photooxygenation reaction [1, 4]: detected

Compound: COc1cc(N(C)C)cc(OC)c1/C=C/C=C/c1nc2ncc(Br)nc2s1 [Compound OMe, 4-((1E,3E)-4-(6-Bromothiazolo[4,5-b]pyrazin-2-yl)butadien-1,3-dien-1-yl)-3,5-dimethoxy-N,N-dimethylaniline]
- λmax (nm), maximum absorption wavelength [2]: 495 nm
- crosslinked product (more than 250 kDa) of the photooxygenation reaction [1, 4]: detected

Compound: CN(C)c1ccc(/C=C/C=C/c2nc3ccc(Br)nc3s2)cc1 [Compound PT, 4-((1E,3E)-4-(5-bromothiazolo[5,4-b]pyridin-2-yl)butadien-1,3-dien-1-yl)-N,N-dimethylaniline]
- λmax (nm), maximum absorption wavelength [2]: 437 nm

Compound: CN(C)c1ccc(/C=C/C=C/c2nc3ncc(Br)nc3s2)cc1 [Compound PzT, 4-((1E,3E)-4-(6-Bromothiazolo[4,5-b]pyrazin-2-yl)butadien-1,3-dien-1-yl)-N,N-dimethylaniline]
- λmax (nm), maximum absorption wavelength [2]: 468 nm
- crosslinked product (more than 250 kDa) of the photooxygenation reaction [1, 4]: detected

Compound: CN1CCCc2cc(/C=C/C=C/c3nc4ncc(Br)nc4s3)ccc21 [Compound Q, 6-Bromo-2-((1E,3E)-4-(1-methyl-1,2,3,4-tetrahydroquinolin-6-yl)butadiene-1,3-dien-1-yl)thiazolo[4,5-b]pyrazine]
- λmax (nm), maximum absorption wavelength [2]: 500 nm
- oxygenation level of methionine compared with control (Vehicle) [3]: did not change
- crosslinked product (more than 250 kDa) of the photooxygenation reaction [1, 4]: detected
